This is an account of results in patent US8779154B2, “Fused ring compounds for inflammation and immune-related uses” (priority 2006, dated 2014).

The subject of the experiment is IL-2 production. In words: Inhibition of IL-2 production in PHA-activated Jurkat cells (ELISA). To be noted: Homo sapiens, PHA 2.5 μg/mL, IL-2 ELISA. The experiment is classed as cell-based. How it is done: Jurkat cells were placed in a 96 well plate (0.5 million cells per well in 1% FBS medium) then a test compound of this invention was added at different concentrations. After 10 minutes, the cells were activated with PHA (final concentration 2.5 μg/mL) and incubated for 20 hours at 37° C. under CO2. The final volume was 200 μL. Following incubation, the cells were centrifuged and the supernatants collected and stored at −70° C. prior to assaying for IL-2 production. A commercial ELISA kit (IL-2 Eli-pair, Diaclone Research, Besancon, France) was used to detect production of IL-2, from which dose response curves were obtained. The IC50 value was calculated as the concentration at which 50% of maximum IL-2 production after stimulation was inhibited versus a non-stimulation control.

`O=C(Nc1nc2c(s1)-c1ccc(-c3ncco3)cc1CCC2)c1c(F)cccc1F` [Compound 76] gave an IC50 (Jurkat, 20 h) of 0.03 to 0.1 µM. Same read-out and setting: next, `O=C(Nc1ncc2c(n1)CCCc1cnc(-c3cccnc3)nc1-2)c1c(F)cccc1F` [Compound 89]: 0.5 to 1 µM; `Cn1nnnc1-c1ccc2c(c1)CCCc1nc(NC(=O)c3c(F)cccc3F)sc1-2` [Compound 78]: at most 0.03 µM. Turning to `COC(=O)c1ccc2c(c1)CCCc1nc(NC(=O)c3c(F)cccc3F)sc1-2` [Compound 73], the IC50 (Jurkat, 20 h) lay within 0.03 to 0.1 µM. In turn, `COc1ccc2c(c1)-c1sc(NC(=O)Nc3c(F)cccc3F)nc1CCC2` [Compound 154] gave an IC50 (Jurkat, 20 h) of 0.5 to 1 µM. Same read-out and setting: in the case of `COc1ccc2c(c1)-c1sc(/C(=N\O)Nc3c(F)cccc3F)nc1CCC2` [Compound 147] it was 0.5 to 1 µM; in that of `O=C(Nc1nc2c(s1)-c1ccncc1CCC2)c1c(F)cccc1F` [Compound 87], 0.03 to 0.1 µM. Regarding `O=C(Nc1ccc2c(c1)CCCc1sc(-c3cccnc3)nc1-2)c1c(F)cccc1F` [Compound 155], the IC50 (Jurkat, 20 h) lay in the range of 0.03 to 0.1 µM.

On to `O=C(Nc1c(F)cccc1F)c1nc2c(s1)-c1cc(OC(=O)n3ccnc3)ccc1CCC2` [Compound 111], for which, where the note is “Jurkat, 20 h”, the IC50 lay in the range of 0.25 to 0.5 µM. Take `COc1ccc2c(c1)-c1sc(/C(=N/c3c(F)cccc3F)SC)nc1CCC2` [Compound 144]: the IC50 (Jurkat, 20 h) is above 1 µM. For the molecule `O=C(Nc1c(F)ccc([N+](=O)[O-])c1F)c1nc2c(s1)-c1ccc([N+](=O)[O-])cc1CCC2` [Compound 35], for the setting “20 hours”, the IC50 fell in the range of 0.1 to 0.25 µM. `O=C(Nc1c(F)cccc1F)c1nc2c(s1)-c1cc(-c3ccccn3)ccc1CCC2` [Compound 37] showed an IC50 (Jurkat, 20 h) of at most 0.03 µM. On the same count and under the same terms, in the case of `Nc1ccc(-c2ccc3c(c2)-c2sc(C(=O)Nc4c(F)cccc4F)nc2CCC3)cn1` [Compound 115] it was 0.03 to 0.1 µM; in that of `O=C(Nc1c(F)cccc1F)c1nc2c(s1)-c1cc(-c3nccs3)ccc1CCC2` [Compound 34], at most 0.03 µM.

Take `CCOC(=O)N(C(=O)c1nc2c(s1)-c1cc(OC)ccc1CCC2)c1c(F)cccc1F` [Compound 143]: the IC50 (Jurkat, 20 h) is 0.1 to 0.25 µM. For the molecule `O=C(Nc1c(F)cccc1F)c1nc2c(s1)-c1cc(CN3CCOCC3)ccc1CCC2` [Compound 42], the IC50 (Jurkat, 20 h) is above 1 µM. Still for that read-out and setting: in the case of `COC(=O)c1ccc2c(c1)-c1sc(C(=O)Nc3c(F)cccc3F)nc1CCC2` [Compound 38] it was at most 0.03 µM; in that of `O=C(Nc1c(F)cccc1F)c1nc2c(s1)-c1cc(-c3cncnc3)ccc1CCC2` [Compound 124], 0.03 to 0.1 µM. `COc1ccc2c(c1)-c1cnc(NC(=O)c3c(F)cccc3F)nc1CCC2` [Compound 93] registered an IC50 (Jurkat, 20 h) of 0.5 to 1 µM. On the same count and under the same terms, next, `O=C(Nc1nc2c(s1)-c1nc(-c3cccnc3)sc1CCC2)c1c(F)cccc1F` [Compound 88]: 0.5 to 1 µM; `O=C(Nc1ccc2c(c1)CCCc1cnc(-c3ccccn3)nc1-2)c1c(F)cccc1F` [Compound 106]: 0.5 to 1 µM.

The molecule `COc1ccc2c(c1)-c1sc(C(=N)Nc3c(F)cccc3F)nc1CCC2` [Compound 152] came in with a 50% inhibitory concentration (IC50) (Jurkat, 20 h) of 0.5 to 1 µM. For the setting “Jurkat, 20 h”, `CN(C)c1cccc(F)c1C(=O)Nc1nc2c(s1)-c1cc(C#N)ccc1CCC2` [Compound 81] returned an IC50 of 0.5 to 1 µM. As for `COc1ncccc1-c1ccc2c(c1)-c1sc(C(=O)Nc3c(F)cccc3F)nc1CCC2` [Compound 123], for the setting “Jurkat, 20 h”, the IC50 is at most 0.03 µM. On to `CN1Cc2ccc(Br)cc2-c2sc(NCc3c(F)cccc3F)nc2C1` [Compound 137], for which, for the setting “Jurkat, 20 h”, the IC50 was above 1 µM.

Take `C/N=C(/Nc1c(F)cccc1F)c1nc2c(s1)-c1cc(OC)ccc1CCC2` [Compound 145]: the IC50 (Jurkat, 20 h) was above 1 µM. Turning to `CC/N=C(/Nc1c(F)cccc1F)c1nc2c(s1)-c1cc(OC)ccc1CCC2` [Compound 149], where the note is “Jurkat, 20 h”, the IC50 is 0.1 to 0.25 µM.

On to `COc1ccc2c(c1)-c1sc(NC(=O)c3c(F)cccc3F)nc1CCO2` [Compound 4], for which the IC50 (Jurkat, 20 h) was above 1 µM. On the same count and under the same terms, next, `COc1ccc2c(c1)-c1sc(NC(=O)c3c(F)cccc3F)nc1CCC2` [Compound 8]: 0.03 to 0.1 µM; `O=C(Nc1nc2c(s1)-c1cc(-c3ccccn3)ccc1CCC2)c1c(F)cccc1F` [Compound 82]: above 1 µM. Turning to `Cn1cncc1-c1ccc2c(c1)-c1sc(C(=O)Nc3c(F)cccc3F)nc1CCC2` [Compound 129], the IC50 (Jurkat, 20 h) is at most 0.03 µM. On the same count and under the same terms, next, `Cn1cc(-c2ccc3c(c2)-c2sc(C(=O)Nc4c(F)cccc4F)nc2CCC3)cn1` [Compound 127]: at most 0.03 µM. In turn, `COc1cccc2c1oc(=O)c1nc(NC(=O)c3c(F)cccc3F)sc12` [Compound 2] registered an IC50 (Jurkat, 20 h) above 1 µM. Turning to `COc1cccc2c1CCCc1nc(C(=O)Nc3ccncc3C)sc1-2` [Compound 11], the 50% inhibitory concentration (IC50) (Jurkat, 20 h) is above 1 µM. `COc1cccc2c1CCCc1nc(NC(=O)c3ccncc3C)ncc1-2` [Compound 92] displayed an IC50 (Jurkat, 20 h) above 1 µM. Same read-out and setting: in the case of `O=C(Nc1nc2c(s1)-c1ccsc1CCC2)c1c(F)cccc1F` [Compound 85] it was above 1 µM; in that of `O=C(Nc1nc2c(s1)-c1ccc(-c3nccs3)cc1CCC2)c1c(F)cccc1F` [Compound 75], 0.1 to 0.25 µM.

With `N=C(Nc1c(F)cccc1F)c1nc2c(s1)-c1cc(-c3cnco3)ccc1CCC2` [Compound 153], for the setting “Jurkat, 20 h”, the IC50 fell in the range of 0.25 to 0.5 µM. Still for that read-out and setting: in the case of `O=C(Nc1nc2c(s1)-c1cccc(O)c1CCC2)c1c(F)cccc1F` [Compound 51] it was 0.03 to 0.1 µM; in that of `O=C(Nc1c(F)cccc1F)c1nc2c(s1)-c1cc(-c3ccc(F)nc3)ccc1CCC2` [Compound 120], 0.25 to 0.5 µM. As for `COc1ccc(-c2ccc3c(c2)-c2sc(C(=O)Nc4c(F)cccc4F)nc2CCC3)cn1` [Compound 121], under “Jurkat, 20 h”, the IC50 was 0.25 to 0.5 µM. For the setting “Jurkat, 20 h”, `O=C(Nc1c(F)cccc1F)c1nc2c(s1)-c1cc(-c3cccnc3F)ccc1CCC2` [Compound 122] returned an IC50 of at most 0.03 µM.

For the setting “Jurkat, 20 h”, `O=C(Nc1nc2c(s1)-c1cc(-c3nccs3)ccc1CCC2)c1c(F)cccc1F` [Compound 83] had an IC50 of 0.1 to 0.25 µM. For the molecule `O=C(Nc1nc2c(s1)-c1ccc(-c3nnn[nH]3)cc1CCC2)c1c(F)cccc1F` [Compound 77], the IC50 (Jurkat, 20 h) is above 1 µM. Take `COc1ccc2c(c1)-c1cnc(NC(=O)c3ccncc3C)nc1CCO2` [Compound 95]: the half-inhibitory concentration (IC50) (Jurkat, 20 h) was above 1 µM. Turning to `O=c1oc2ccc(C(F)(F)F)cc2c2sc(NCc3c(F)cccc3F)nc12` [Compound 7], the IC50 (Jurkat, 20 h) is above 1 µM. In the case of `COc1cccc2c1CCCc1nc(C(=O)Nc3c(F)cccc3F)sc1-2` [Compound 6], the IC50 (Jurkat, 20 h) was 0.25 to 0.5 µM. Still for that read-out and setting: next, `N#Cc1ccc2c(c1)-c1sc(NC(=O)c3c(F)cccc3F)nc1CCC2` [Compound 80]: above 1 µM; `O=C(Nc1nc2c(s1)-c1cc(O)ccc1CCC2)c1c(F)cccc1F` [Compound 79]: 0.25 to 0.5 µM; `Fc1cccc(F)c1NC(=S)c1nc2c(s1)-c1cc(-c3cnco3)ccc1CCC2` [Compound 148]: 0.03 to 0.1 µM. Same read-out and setting: next, `COc1cc(-c2ccc3c(c2)-c2sc(C(=O)Nc4c(F)cccc4F)nc2CCC3)ccn1` [Compound 119]: 0.1 to 0.25 µM; `COc1ccc2c(c1)-c1sc(C(=O)Nc3c(F)cccc3F)nc1CCC2` [Compound 5]: at most 0.03 µM. `O=C1NCc2ccc(Br)cc2-c2sc(NC(=O)c3c(F)cccc3F)nc21` [Compound 136] gave an IC50 (Jurkat, 20 h) above 1 µM. Consider `O=C(Nc1ccc2c(c1)CCCc1cnc(-c3cccnc3)nc1-2)c1c(F)cccc1F` [Compound 99], for which the IC50 (Jurkat, 20 h) was 0.03 to 0.1 µM. Molecule `COc1ccc2c(c1)-c1sc(C(=O)Nc3c(F)cccc3F)nc1CCO2` [Compound 33] showed an IC50 (Jurkat, 20 h) of 0.1 to 0.25 µM. Still for that read-out and setting: next, `COc1ccc2c(c1)-c1sc(NC(=O)c3ccncc3F)nc1CCC2` [Compound 3]: above 1 µM; `O=C(Nc1c(F)cccc1F)c1nc2c(s1)-c1cc(-c3nnn[nH]3)ccc1CCC2` [Compound 40]: above 1 µM. In turn, `Fc1cccc(F)c1CNc1ccc2c(c1)CCCc1cnc(-c3cccnc3)nc1-2` [Compound 104] displayed an IC50 (Jurkat, 20 h) above 1 µM. `Fc1cccc(F)c1CNc1nc2c(s1)-c1cccc(-c3cnco3)c1CCC2` [Compound 69] yielded an IC50 (Jurkat, 20 h) of 0.25 to 0.5 µM. With `Cn1nnc(-c2ccc3c(c2)-c2sc(C(=O)Nc4c(F)cccc4F)nc2CCC3)n1` [Compound 41], the IC50 (Jurkat, 20 h) lay within 0.25 to 0.5 µM. In turn, `COc1ccc2c(c1)CCCc1nc(NC(=O)c3c(F)cccc3F)cnc1-2` [Compound 96] yielded an IC50 (Jurkat, 20 h) of 0.25 to 0.5 µM. On the same count and under the same terms, next, `O=C(Nc1nc2c(=O)oc3ccc(O)cc3c2s1)c1c(F)cccc1F` [Compound 15]: above 1 µM; `O=C(Nc1nc2c(s1)-c1cc(Br)ccc1CCC2)c1c(F)cccc1F` [Compound 17]: above 1 µM; `CN1Cc2ccc(Br)cc2-c2sc(NC(=O)c3c(F)cccc3F)nc2C1` [Compound 138]: 0.25 to 0.5 µM. For `O=C(Nc1nc2c(s1)-c1cc(Br)sc1CCC2)c1c(F)cccc1F` [Compound 84], the IC50 (Jurkat, 20 h) is above 1 µM. Same read-out and setting: next, `O=C(Nc1c(F)cccc1F)c1nc2c(s1)-c1cc(-c3cnc[nH]3)ccc1CCC2` [Compound 131]: 0.5 to 1 µM; `O=C(Nc1nc2c(s1)-c1ccccc1CCC2)c1c(F)cccc1F` [Compound 16]: 0.25 to 0.5 µM; `O=C(Nc1c(F)cccc1F)c1nc2c(s1)-c1cc(-c3cn[nH]c3)ccc1CCC2` [Compound 128]: 0.1 to 0.25 µM. Same read-out and setting: in the case of `O=C(Nc1ccc2c(c1)CCCc1cnc(C3CC3)nc1-2)c1c(F)cccc1F` [Compound 110] it was 0.25 to 0.5 µM; in that of `O=C(Nc1nc2c(s1)-c1ccc(I)cc1CCC2)c1c(F)cccc1F` [Compound 72], 0.03 to 0.1 µM. Where the note is “Jurkat, 20 h”, `O=C(Nc1c(F)cccc1F)c1nc2c(s1)-c1nc(-c3cccnc3)sc1CCC2` [Compound 133] gave an IC50 of 0.03 to 0.1 µM. The same measure, in the same setting: next, `CN1Cc2ccc(Br)cc2-c2sc(NC(=O)c3c(F)cccc3F)nc2C1=O` [Compound 135]: above 1 µM; `O=C(Nc1nc2c(s1)-c1ccc(-n3ccnc3)cc1CCC2)c1c(F)cccc1F` [Compound 74]: 0.1 to 0.25 µM.
